Measurements reported in patent US20250195530A1, “POLQ INHIBITORS” (ASTRAZENECA AB, priority 2022, published 2025).
Like-named read-outs stand apart in the source and are kept apart here.

Test system: DLD-1 BRCA2−/− cells
Experiment: Homologous recombination synthetic lethal inhibition of proliferation, DLD-1 BRCA2-/- (Cell Titre Glo 3D)
Type: cell-based
Settings: Homo sapiens
How it was run: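 DLD-1 BRCA2−/− and parental DLD-1 cells exposed to 10-point dose range (10 μM to 0.51 nM, 3-fold) in RPMI/10% FBS at 37 °C, with medium and compound replenished on day 6. Viability by Cell Titre Glo 3D luminescence at day 7 (DLD-1) or day 12 (BRCA2−/−); IC50 as concentration halving maximum signal.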

[1] = DLD-1, DLD-1 BRCA2 −/− cells, mean, read-out: POLQ PD Prolif Lumin BRCA2 −/− mean pIC50 (converted)
[2] = DLD-1, first proliferation column (c5), DLD-1 BRCA2-/-, read-out: POLQ PD Prolif Lumin (converted)
[3] = DLD-1, proliferation, luminescence, taken as DLD-1 BRCA2-/-, read-out: POLQ PD Prolif Lumin (converted)
[4] = DLD-1, DLD-1 BRCA2-/- proliferation, column head only partly shown, read-out: POLQ PD Prolif Lumin (converted)
[5] = DLD-1, first proliferation column (c5), taken as DLD-1 BRCA2-/-, read-out: POLQ PD Prolif Lumin (converted)

Structure (SMILES): CNS(=O)(=O)c1ccc(-c2nc3c(OC4(C)CC4)ncnc3n2Cc2cc(C)ccn2)c(Cl)c1 [Example T30, 3-chloro-N-methyl-4-(6-(1-methylcyclopropoxy)-9-((4-methylpyridin-2-yl)methyl)-9H-purin-8-yl)benzenesulfonamide]
- IC50 [1]: 631 nM

Structure (SMILES): CC1(Oc2ncnc3c2nc(-c2ccc(CC(N)=O)cc2Cl)n3Cc2ccc(C(F)(F)F)nc2)CC1 [Example T38, 2-(3-chloro-4-(6-(1-methylcyclopropoxy)-9-((6-(trifluoromethyl)pyridin-3-yl)methyl)-9H-purin-8-yl)phenyl)acetamide]
- IC50 [1]: 6310 nM

Structure (SMILES): Cc1ncc(Cn2c(-c3ccc(CC(N)=O)cc3Cl)nc3c(OC4(C)CC4)ncnc32)s1 [Example T5, 2-(3-chloro-4-(6-(1-methylcyclopropoxy)-9-((2-methylthiazol-5-yl)methyl)-9H-purin-8-yl)phenyl)acetamide]
- IC50 [1]: > 7940 nM

Structure (SMILES): Cc1ccnc(Cn2c(-c3ccc(OCC(=O)NCC(C)(C)O)cc3Cl)nc3c(OC4(C)CC4)ncnc32)c1 [Example T517, 2-(3-chloro-4-(6-(1-methylcyclopropoxy)-9-((4-methylpyridin-2-yl)methyl)-9H-purin-8-yl)phenoxy)-N-(2-hydroxy-2-methylpropyl)acetamide]
- IC50 [2]: 398 nM

Structure (SMILES): Cc1ccnc(Cn2c(-c3ccc(OCC(=O)N4CC(C)(O)C4)cc3Cl)nc3c(OC4(C)CC4)ncnc32)c1 [Example T477, 2-(3-chloro-4-(6-(1-methylcyclopropoxy)-9-((4-methylpyridin-2-yl)methyl)-9H-purin-8-yl)phenoxy)-1-(3-hydroxy-3-methylazetidin-1-yl)ethan-1-one]
- IC50 [3]: 1260 nM

Structure (SMILES): C[C@H](CCOc1cccc(-c2nc3c(OC4(C)CC4)ncnc3n2Cc2cccc(Cl)c2)c1Cl)C(=O)O [Example T297, (R)-4-(2-chloro-3-(9-(3-chlorobenzyl)-6-(1-methylcyclopropoxy)-9H-purin-8-yl)phenoxy)-2-methylbutanoic acid]
- IC50 [4]: 63.1 nM

Structure (SMILES): Cc1ccnc(Cn2c(-c3ccc(OC[C@@H]4CNC(=O)CO4)cc3Cl)nc3c(OC4(C)CC4)ncnc32)c1 [Example T324, (S)-6-((3-chloro-4-(6-(1-methylcyclopropoxy)-9-((4-methylpyridin-2-yl)methyl)-9H-purin-8-yl)phenoxy)methyl)morpholin-3-one]
- IC50 [5]: 398 nM

Structure (SMILES): Cc1ccnc(Cn2c(-c3ccc(OCC(F)F)cc3Cl)nc3c(OC4(C)CC4)ncnc32)c1 [Example T47, 8-(2-chloro-4-(2,2-difluoroethoxy)phenyl)-6-(1-methylcyclopropoxy)-9-((4-methylpyridin-2-yl)methyl)-9H-purine]
- IC50 [1]: 200 nM

Structure (SMILES): Cc1ccnc(Cn2c(-c3ccc(C(=O)N4CC(O)C4)cc3Cl)nc3c(OC4(C)CC4)ncnc32)c1 [Example T180, (3-chloro-4-(6-(1-methylcyclopropoxy)-9-((4-methylpyridin-2-yl)methyl)-9H-purin-8-yl)phenyl)(3-hydroxyazetidin-1-yl)methanone]
- IC50 [2]: 1000 nM

Structure (SMILES): Cc1ccnc(Cn2c(-c3ccc(OCC(=O)NCCCF)cc3Cl)nc3c(OC4(C)CC4)ncnc32)c1 [Example T328, 2-(3-chloro-4-(6-(1-methylcyclopropoxy)-9-((4-methylpyridin-2-yl)methyl)-9H-purin-8-yl)phenoxy)-N-(3-fluoropropyl)acetamide]
- IC50 [5]: 398 nM

Structure (SMILES): Cc1ccnc(Cn2c(-c3ccc(OCC(=O)N[C@H](C)CCO)cc3Cl)nc3c(OC4(C)CC4)ncnc32)c1 [Example T516, (R)-2-(3-chloro-4-(6-(1-methylcyclopropoxy)-9-((4-methylpyridin-2-yl)methyl)-9H-purin-8-yl)phenoxy)-N-(4-hydroxybutan-2-yl)acetamide]
- IC50 [2]: 200 nM

Structure (SMILES): CC(C)(CCOc1ccc(-c2nc3c(OC4(C)CC4)ncnc3n2Cc2cccc(Cl)c2)c(Cl)c1)CC(=O)O [Example T562, 5-(3-chloro-4-(9-(3-chlorobenzyl)-6-(1-methylcyclopropoxy)-9H-purin-8-yl)phenoxy)-3,3-dimethylpentanoic acid]
- IC50 [2]: 126 nM

Structure (SMILES): Cc1ccnc(Cn2c(-c3ccc(OCCOCCO)cc3Cl)nc3c(OC4(C)CC4)ncnc32)c1 [Example T233, 2-(2-(3-chloro-4-(6-(1-methylcyclopropoxy)-9-((4-methylpyridin-2-yl)methyl)-9H-purin-8-yl)phenoxy)ethoxy)ethan-1-ol]
- IC50 [4]: 158 nM

Structure (SMILES): CNC(=O)COc1ccc(-c2nc3c(OC4(C)CC4)ncnc3n2Cc2cc(Cl)ccn2)c(Cl)c1 [Example T51, 2-(3-chloro-4-(9-((4-chloropyridin-2-yl)methyl)-6-(1-methylcyclopropoxy)-9H-purin-8-yl)phenoxy)-N-methylacetamide]
- IC50 [1]: 158 nM

Structure (SMILES): CC1(Oc2ncnc3c2nc(-c2ccc(OCCC(=O)O)cc2Cl)n3Cc2ccccc2Cl)CC1 [Example T88, 3-(3-chloro-4-(9-(2-chlorobenzyl)-6-(1-methylcyclopropoxy)-9H-purin-8-yl)phenoxy)propanoic acid]
- IC50 [1]: 794 nM

Structure (SMILES): Cc1ccnc(Cn2c(-c3ccc(OCC(=O)N4CC(F)C4)cc3Cl)nc3c(OC4(C)CC4)ncnc32)c1 [Example T283, 2-(3-chloro-4-(6-(1-methylcyclopropoxy)-9-((4-methylpyridin-2-yl)methyl)-9H-purin-8-yl)phenoxy)-1-(3-fluoroazetidin-1-yl)ethan-1-one]
- IC50 [4]: 158 nM

Structure (SMILES): CC(CCOc1ccc(-c2nc3c(OC4(C)CC4)ncnc3n2Cc2cccc(F)c2F)c(Cl)c1)C(=O)O (single isomer, unassigned) [Example T261, 4-(3-chloro-4-(9-(2,3-difluorobenzyl)-6-(1-methylcyclopropoxy)-9H-purin-8-yl)phenoxy)-2-methylbutanoic acid]
- IC50 [4]: 631 nM

Structure (SMILES): CC(CCOc1ccc(-c2nc3c(OC4(C)CC4)ncnc3n2Cc2cc(C#N)ccc2F)c(Cl)c1)C(=O)O (racemic) [Example U18, 4-(3-chloro-4-(9-(5-cyano-2-fluorobenzyl)-6-(1-methylcyclopropoxy)-9H-purin-8-yl)phenoxy)-2-methylbutanoic acid]
- IC50 (DLD-1, DLD-1 BRCA2 −/−, mean, read-out: POLQ PD Prolif Lumin BRCA2 −/− mean pIC50 (converted)): 398 nM

Structure (SMILES): Cc1ccnc(Cn2c(-c3ccc(C(=O)N[C@H](C)CCO)cc3Cl)nc3c(OC4(C)CC4)ncnc32)c1 [Example T364, (R)-3-chloro-N-(4-hydroxybutan-2-yl)-4-(6-(1-methylcyclopropoxy)-9-((4-methylpyridin-2-yl)methyl)-9H-purin-8-yl)benzamide]
- IC50 [5]: 794 nM

Structure (SMILES): COC1(COc2ccc(-c3nc4c(OC5(C)CC5)ncnc4n3Cc3cc(C)ccn3)c(Cl)c2)COC1 [Example T333, 8-(2-chloro-4-((3-methoxyoxetan-3-yl)methoxy)phenyl)-6-(1-methylcyclopropoxy)-9-((4-methylpyridin-2-yl)methyl)-9H-purine]
- IC50 [5]: 251 nM

Structure (SMILES): Cc1ccnc(Cn2c(-c3ccc(O[C@@H]4CNC(=O)C4)cc3Cl)nc3c(OC4(C)CC4)ncnc32)c1 [Example T184, (S)-4-(3-chloro-4-(6-(1-methylcyclopropoxy)-9-((4-methylpyridin-2-yl)methyl)-9H-purin-8-yl)phenoxy)pyrrolidin-2-one]
- IC50 [2]: 251 nM

Structure (SMILES): Cc1ccnc(Cn2c(-c3ccc(OCCN4CC[C@@H](O)C4=O)cc3Cl)nc3c(OC4(C)CC4)ncnc32)c1 [Example T474, (R)-1-(2-(3-chloro-4-(6-(1-methylcyclopropoxy)-9-((4-methylpyridin-2-yl)methyl)-9H-purin-8-yl)phenoxy)ethyl)-3-hydroxypyrrolidin-2-one]
- IC50 [3]: 251 nM

Structure (SMILES): Cc1ccnc(Cn2c(-c3ccc(OCC(=O)N4CCC4)cc3Cl)nc3c(OC4(C)CC4)ncnc32)c1 [Example T312, 1-(azetidin-1-yl)-2-(3-chloro-4-(6-(1-methylcyclopropoxy)-9-((4-methylpyridin-2-yl)methyl)-9H-purin-8-yl)phenoxy)ethan-1-one]
- IC50 [5]: 200 nM

Structure (SMILES): C#CCNC(=O)c1ccc(-c2nc3c(OC4(C)CC4)ncnc3n2Cc2cc(C)ccn2)c(Cl)c1 [Example T152, 3-chloro-4-(6-(1-methylcyclopropoxy)-9-((4-methylpyridin-2-yl)methyl)-9H-purin-8-yl)-N-(prop-2-yn-1-yl)benzamide]
- IC50 [2]: 398 nM

Structure (SMILES): C[C@@H]1CNCCN1CCOc1ccc(-c2nc3c(OC4(C)CC4)ncnc3n2Cc2cc(Cl)ccn2)c(Cl)c1 [Example T522, (R)-8-(2-chloro-4-(2-(2-methylpiperazin-1-yl)ethoxy)phenyl)-9-((4-chloropyridin-2-yl)methyl)-6-(1-methylcyclopropoxy)-9H-purine]
- IC50 [2]: 251 nM

Structure (SMILES): Cc1nnc(Cn2c(-c3ccc(CC(N)=O)cc3Cl)nc3c(OC4(C)CC4)ncnc32)s1 [Example T1, 2-(3-chloro-4-(9-((5-methyl-1,3,4-thiadiazol-2-yl)methyl)-6-(1-methylcyclopropoxy)-9H-purin-8-yl)phenyl)acetamide]
- IC50 [1]: > 10000 nM

Structure (SMILES): Cc1ccnc(Cn2c(-c3ccc(OCC(=O)NC4CC4)cc3Cl)nc3c(OC4(C)CC4)ncnc32)c1 [Example T318, 2-(3-chloro-4-(6-(1-methylcyclopropoxy)-9-((4-methylpyridin-2-yl)methyl)-9H-purin-8-yl)phenoxy)-N-cyclopropylacetamide]
- IC50 [5]: 398 nM

Structure (SMILES): CC1(Oc2ncnc3c2nc(-c2ccc(OCCN4C[C@@H]5C[C@H]4CN5)cc2Cl)n3Cc2cc(Cl)ccn2)CC1 [Example T487, 8-(4-(2-((1S,4S)-2,5-diazabicyclo[2.2.1]heptan-2-yl)ethoxy)-2-chlorophenyl)-9-((4-chloropyridin-2-yl)methyl)-6-(1-methylcyclopropoxy)-9H-purine]
- IC50 [2]: 398 nM
